Tests used:
Test in all cases: relative viability (nuclei count vs DMSO), 5 days (fraction); higher = more cells survive
[1] = system: HCC-15
Method in brief: (§1)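 For relative viability, nuclei counts in treated wells were divided by those in vehicle wells. Lung cancer cell lines had been pin-tool dosed in 1536-well plates the day after seeding and cultured for 5 days, then fixed and stained in one step (final 0.05% Triton X-100, 1% formaldehyde, 1 ug/ml Hoechst) and imaged at 4×. Doses were one drug alone or a fixed anchor-drug dose plus five library-drug doses (not always all listed) in √10 steps, and values are duplicate-plate medians.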

[2] = system: NCI-H1975
Method in brief: as §1

[3] = system: ABC-1
Method in brief: as §1

[4] = system: ChaGo-K-1
Method in brief: as §1

[5] = system: NCI-H322M
Method in brief: as §1

[6] = system: CAL-12T
Method in brief: as §1

[7] = system: NCI-H3122
Method in brief: as §1

[8] = system: NCI-H1666
Method in brief: as §1

[9] = system: NCI-H2126
Method in brief: as §1

[10] = system: EMC-BAC-2
Method in brief: as §1

[11] = system: NCI-H1755
Method in brief: as §1

[12] = system: NCI-H358
Method in brief: as §1

[13] = system: NCI-H2085
Method in brief: as §1

[14] = system: NCI-H1915
Method in brief: as §1

[15] = system: UMC-11
Method in brief: as §1

[16] = system: HCC-78
Method in brief: as §1

[17] = system: COR-L 105
Method in brief: as §1

[18] = system: NCI-H441
Method in brief: as §1

[19] = system: NCI-H1993
Method in brief: as §1

[20] = system: LXF-289
Method in brief: as §1

[21] = system: EPLC-272H
Method in brief: as §1

[22] = system: HOP-62
Method in brief: as §1

[23] = system: NCI-H2023
Method in brief: as §1

NC(=O)Nc1cc(-c2cccc(F)c2)sc1C(=O)N[C@H]1CCCNC1 [AZD7762] + CC(=O)c1c(C)c2cnc(Nc3ccc(N4CCNCC4)cn3)nc2n(C2CCCC2)c1=O [Palbociclib] (partner 0.5 µM)
relative viability ([1]; first compound 0.01 µM): 0.74 | relative viability ([1]; first compound 0.03162 µM): 0.738 | relative viability ([1]; first compound 0.1 µM): 0.802 | relative viability ([1]; first compound 0.3162 µM): 0.676 | relative viability ([1]; first compound 1 µM): 0.718 | relative viability ([2]; first compound 0.01 µM): 0.519 | relative viability ([2]; first compound 0.03162 µM): 0.549 | relative viability ([2]; first compound 0.1 µM): 0.585 | relative viability ([2]; first compound 0.3162 µM): 0.352 | relative viability ([2]; first compound 1 µM): 0.357 | relative viability ([3]; first compound 0.01 µM): 0.884 | relative viability ([3]; first compound 0.03162 µM): 0.968 | relative viability ([3]; first compound 0.1 µM): 0.526 | relative viability ([3]; first compound 0.3162 µM): 0.948 | relative viability ([3]; first compound 1 µM): 0.74 | relative viability ([4]; first compound 0.01 µM): 1.01 | relative viability ([4]; first compound 0.03162 µM): 0.953 | relative viability ([4]; first compound 0.1 µM): 0.958 | relative viability ([4]; first compound 0.3162 µM): 0.932 | relative viability ([4]; first compound 1 µM): 1.03 | relative viability ([5]; first compound 0.01 µM): 0.477 | relative viability ([5]; first compound 0.03162 µM): 0.517 | relative viability ([5]; first compound 0.1 µM): 0.465 | relative viability ([5]; first compound 0.3162 µM): 0.523 | relative viability ([5]; first compound 1 µM): 0.441 | relative viability ([6]; first compound 0.01 µM): 0.519 | relative viability ([6]; first compound 0.03162 µM): 0.502 | relative viability ([6]; first compound 0.1 µM): 0.412 | relative viability ([6]; first compound 0.3162 µM): 0.194 | relative viability ([6]; first compound 1 µM): 0.129 | relative viability ([7]; first compound 0.01 µM): 0.167 | relative viability ([7]; first compound 0.03162 µM): 0.206 | relative viability ([7]; first compound 0.1 µM): 0.191 | relative viability ([7]; first compound 0.3162 µM): 0.199 | relative viability ([7]; first compound 1 µM): 0.191 | relative viability ([8]; first compound 0.01 µM): 0.609 | relative viability ([8]; first compound 0.03162 µM): 0.728 | relative viability ([8]; first compound 0.1 µM): 0.701 | relative viability ([8]; first compound 0.3162 µM): 0.565 | relative viability ([8]; first compound 1 µM): 0.65 | relative viability ([9]; first compound 0.01 µM): 0.353 | relative viability ([9]; first compound 0.03162 µM): 0.363 | relative viability ([9]; first compound 0.1 µM): 0.346 | relative viability ([9]; first compound 0.3162 µM): 0.369 | relative viability ([9]; first compound 1 µM): 0.397 | relative viability ([10]; first compound 0.01 µM): 0.555 | relative viability ([10]; first compound 0.03162 µM): 0.527 | relative viability ([10]; first compound 0.1 µM): 0.537 | relative viability ([10]; first compound 0.3162 µM): 0.554 | relative viability ([10]; first compound 1 µM): 0.541 | relative viability ([11]; first compound 0.01 µM): 0.483 | relative viability ([11]; first compound 0.03162 µM): 0.488 | relative viability ([11]; first compound 0.1 µM): 0.466 | relative viability ([11]; first compound 0.3162 µM): 0.495 | relative viability ([11]; first compound 1 µM): 0.442 | relative viability ([12]; first compound 0.01 µM): 0.182 | relative viability ([12]; first compound 0.03162 µM): 0.141 | relative viability ([12]; first compound 0.1 µM): 0.111 | relative viability ([12]; first compound 0.3162 µM): 0.105 | relative viability ([12]; first compound 1 µM): 0.0964 | relative viability ([13]; first compound 0.01 µM): 0.478 | relative viability ([13]; first compound 0.03162 µM): 0.458 | relative viability ([13]; first compound 0.1 µM): 0.494 | relative viability ([13]; first compound 0.3162 µM): 0.483 | relative viability ([13]; first compound 1 µM): 0.544 | relative viability ([14]; first compound 0.01 µM): 0.552 | relative viability ([14]; first compound 0.03162 µM): 0.608 | relative viability ([14]; first compound 0.1 µM): 0.606 | relative viability ([14]; first compound 0.3162 µM): 0.617 | relative viability ([14]; first compound 1 µM): 0.563 | relative viability ([15]; first compound 0.01 µM): 0.373 | relative viability ([15]; first compound 0.03162 µM): 0.302 | relative viability ([15]; first compound 0.1 µM): 0.34 | relative viability ([15]; first compound 0.3162 µM): 0.301 | relative viability ([15]; first compound 1 µM): 0.231 | relative viability ([16]; first compound 0.01 µM): 0.444 | relative viability ([16]; first compound 0.03162 µM): 0.461 | relative viability ([16]; first compound 0.1 µM): 0.444 | relative viability ([16]; first compound 0.3162 µM): 0.518 | relative viability ([16]; first compound 1 µM): 0.454 | relative viability ([17]; first compound 0.01 µM): 0.414 | relative viability ([17]; first compound 0.03162 µM): 0.415 | relative viability ([17]; first compound 0.1 µM): 0.367 | relative viability ([17]; first compound 0.3162 µM): 0.386 | relative viability ([17]; first compound 1 µM): 0.372 | relative viability ([18]; first compound 0.01 µM): 0.242 | relative viability ([18]; first compound 0.03162 µM): 0.26 | relative viability ([18]; first compound 0.1 µM): 0.232 | relative viability ([18]; first compound 0.3162 µM): 0.251 | relative viability ([18]; first compound 1 µM): 0.256 | relative viability ([19]; first compound 0.01 µM): 0.84 | relative viability ([19]; first compound 0.03162 µM): 0.648 | relative viability ([19]; first compound 0.1 µM): 0.709 | relative viability ([19]; first compound 0.3162 µM): 0.589 | relative viability ([19]; first compound 1 µM): 0.652 | relative viability ([20]; first compound 0.01 µM): 0.569 | relative viability ([20]; first compound 0.03162 µM): 0.689 | relative viability ([20]; first compound 0.1 µM): 0.628 | relative viability ([20]; first compound 0.3162 µM): 0.679 | relative viability ([20]; first compound 1 µM): 0.668 | relative viability ([21]; first compound 0.01 µM): 0.325 | relative viability ([21]; first compound 0.03162 µM): 0.297 | relative viability ([21]; first compound 0.1 µM): 0.351 | relative viability ([21]; first compound 0.3162 µM): 0.307 | relative viability ([21]; first compound 1 µM): 0.362 | relative viability ([22]; first compound 0.01 µM): 0.476 | relative viability ([22]; first compound 0.03162 µM): 0.394 | relative viability ([22]; first compound 0.1 µM): 0.545 | relative viability ([22]; first compound 0.3162 µM): 0.484 | relative viability ([22]; first compound 1 µM): 0.487 | relative viability ([23]; first compound 0.01 µM): 0.402 | relative viability ([23]; first compound 0.03162 µM): 0.377 | relative viability ([23]; first compound 0.1 µM): 0.219 | relative viability ([23]; first compound 0.3162 µM): 0.162 | relative viability ([23]; first compound 1 µM): 0.095

Reference: the supplement of paper PMC10307832
